Data taken from US5387518A, “Alkaline protease having stability in solution with anionic surfactant, method for producing the same, use thereof and microorganism producing the same” (priority 1991, dated 1995).
Read-outs that look alike come from different tables or passages of the source.

System: alkaline protease API-25 produced by Bacillus sp. SD523 (Bacillus firmus, FERM BP-3774)
Assay type: biochemical
Description: To 500 μl of a 50 mM Atkins-Pantin phosphate buffer solution (pH 10) is added 50 μl of an enzyme solution diluted appropriately, and the resulting mixture is preincubated at 30° C. for 3 to 5 minutes. Then, 500 μl of a 2% Hammerstein casein solution (pH 10) is added to the solution, and after 10 minutes 2 ml of TCA solution (0.132M TCA, adjusted to pH 4 with an acetate buffer solution) is added thereto to stop the reaction. After leaving it to stand at 30° C. for 10~15 minutes, the mixture is filtered using No. 2 filter paper (produced by Toyo Filter Paper Co., Ltd.). To 1 ml of the filtrate solution are added 5 ml of 0.4M sodium carbonate and 1 ml of 6-fold diluted phenol reagent. After leaving the mixture to stand at 30° C. for 20 minutes for color development, its optical density is measured at 660 nm.
Influence of various inhibitors against the enzyme of the present invention is examined under the conditions and by the method described below.
Enzyme solutions containing the enzyme of the present invention in a concentration of 20 nkatal/ml are prepared using a 50 mM borate buffer solution (pH 10), respectively. Various inhibitors in concentrations as shown in Table 11 are added to the enzyme solutions, respectively. After incubating the resulting mixtures at 30° C. for 30 minutes, the residual activity of the enzyme in the mixtures is measured. Results obtained are shown in Table 11, in which the activity is expressed in terms of relative activity assuming that the activity in the absence of inhibitors is 100%.

[1] = inhibitor 1 mM, enzyme 20 nkatal/ml in 50 mM borate buffer pH 10, incubated 30° C. for 30 minutes, activity in the absence of inhibitors = 100%
[2] = inhibitor 10 mM, enzyme 20 nkatal/ml in 50 mM borate buffer pH 10, incubated 30° C. for 30 minutes, activity in the absence of inhibitors = 100%

O=S(=O)(F)Cc1ccccc1 [PMSF, Phenylmethanesulfonyl fluoride]
Residual Activity (%) [1]: 31%
Residual Activity (%) [2]: 0.7%
Inhibition of the enzyme (in words) (summary of Table 11, reveals that the enzyme is a serine protease): inhibited by phenylmethanesulfonyl fluoride (PMSF) considerably

O=C(O)CN(CCN(CC(=O)O)CC(=O)O)CC(=O)O [EDTA, Ethylenediaminetetraacetic acid]
Residual Activity (%) (pH 10): 104%

O=C(O)c1cc[c]([Hg][Cl])cc1 [PCMB, pChloromercuribenzoic acid]
Residual Activity (%) [1]: 98%
Residual Activity (%) [2]: 90%
